Values of other authors in patent US20190030061A1, “COBALAMIN COMPOSITIONS AND USE THEREOF FOR IMPROVING COGNITIVE FUNCTION” (NOVA SOUTHEASTERN UNIVERSITY, priority 2016, published 2019).

System: neuronal cells

Substance | GSH levels | cysteine uptake
Amyloid Beta | decrease | decrease
IGF1: insulin-like growth factor 1 | increased | stimulates
